Entries after “also recorded” stand apart in the source; their conditions may differ.
Columns and labels:
Type in all cases: cell-based, human
[1] = tested on: T3M4 cells; experiment: in vitro wound-healing (migration) assay, shRNA infected T3M4 cells; conditions: EGF 1 nmol/L; 24 hours; control shRNA, sh1 or sh2 infected cells; percentage change in wound area
Description: (§1) To assess the motility properties, in vitro wound-healing assays or migration assays were performed. Cells were grown to confluence in 6-well tissue culture plates, serum starved overnight, and the monolayer was scratched with a 200 μL pipette tip generating two parallel wounds. The scratched wells were washed to remove cell debris and incubated for the next 24 hours in serum free media in the absence or presence 1 nmol/L EGF with or without the Src family kinase inhibitor PP2 (4-amino-5-(4-chlorophenyl)-7-(t-butyl)pyrazolo[3,4-d]pyrimidine) (Alexis, La Jolla, Calif.). To monitor cell migration, photographs were taken of each well at five marked locations under 40× magnification immediately after wounding (t0) and again 24 hours after wounding (t24), using an inverted microscope fitted with a digital camera (Nikon Diaphot 300, Nikon, Japan). The wound area of five matched pictures at t0 and t24 from each well were then measured using the ImageJ software (NIH, Bethedsa, Md.), and the percentage change in the wound area was calculated.

[2] = tested on: PANC-1 cells; experiment: Matrigel cell invasion assay, sham and 14-3-3σ overexpressing PANC-1 clones; conditions: 20 hours
Description: (§2) Cell invasion was measured as reported previously, with some modification (Rowland-Goldsmith, M. A. et al. 2001. Clin. Cancer Res. 7:2931-2940). Briefly, cells were suspended in 500 μL of serum-free medium (0.1% BSA) and placed onto the upper compartment of Matrigel-coated transwell chambers (8 μm pore sized, BioCoat Matrigel Invasion Chambers, BD Biosciences, San Jose, Calif.). The lower compartment was filled with 750 μL of medium containing serum free media in the absence or presence of the respective growth factors. After 18-20 hours, cells on the upper surface of the filter were carefully removed with a cotton swab and the membranes were fixed in methanol. The cells that had migrated through the membrane to the lower surface of the filter were stained with toluidine blue (Fisher Scientific, Fair Lawn, N.J.) and counted using a light microscope.

[3] = tested on: T3M4 cells; experiment: Matrigel cell invasion assay, shRNA infected T3M4 cells; conditions: 18 hours
Description: as §2

[4] = tested on: PANC-1 cells; experiment: in vitro wound-healing (migration) assay, sham and 14-3-3σ overexpressing PANC-1 clones; conditions: EGF 1 nmol/L; serum free media; 24 hours
Description: as §1

[5] = tested on: PANC-1 cells; experiment: cisplatinum induced apoptosis, immunoblot of cleaved PARP and cleaved caspase-3, PANC-1 clones; conditions: 10 μg/mL cisplatinum; 24 hours
Description: (§3) Sham or 14-3-3σ transfected PANC-1 cells were incubated for 24 hours in complete medium in the absence or presence of 10 μg/mL of cisplatinum. Scrambled or 14-3-3σ specific shRNA infected T3M4 cells were incubated in complete medium for 24 hours that was supplemented with 10 μg/mL cisplatinum for the initial 2 or 6 hours, or the entire 24 hours. Both floating and adherent cells were then collected and lysed in the buffer containing protease inhibitors, subjected to 10% SDS-PAGE, and immunoblotted with specific antibodies against cleaved Poly (ADP-ribose) Polymerase (PARP) and cleaved caspase-3 (Cell Signaling Technology, Danvers, Mass.).

[6] = tested on: PANC-1 cells; experiment: MTT assay, survival of PANC-1 clones with cisplatinum; conditions: 10 μg/mL cisplatinum; 48 hours
Description: Sham-transfected PANC-1 cells and 14-3-3σ transfected clones (1×10^4) were plated in 96-well plates (six wells per sample). Cells were allowed to attach and grow for 48 hours in complete medium, and then treated with complete medium in the absence or presence of 10 μg/mL of cisplatinum (Sigma) for 48 hours, followed by the addition of MTT (3-[4,5-dimethylthiazol-2-yl]-2,5-diphenyltetrazolium bromide) (Sigma) at a final concentration 0.55 μg/mL. After an additional 4 hour incubation, absorbance at 570 nm was determined, with a reference of 650 nm, using a Emax precision microplate reader (Molecular devices, Sunnyvale, Calif.), as previously reported (Arnold, N. B. et al. 2004. Cancer Res. 64:3599-3606). It was previously determined that in pancreatic cancer cell lines the MTT assay correlates closely with cell growth as determined by cell counting and by assessing [^3H]thymidine incorporation (Raitano, A. B. and M. Korc. 1990. J. Biol. Chem. 265:10466-10472; Baldwin, R. L. and M. Korc. 1993. Growth Fact. 8:23-34).

[7] = tested on: T3M4 cells; experiment: cisplatinum induced apoptosis, immunoblot of cleaved PARP and cleaved caspase-3, shRNA infected T3M4 cells; conditions: cisplatinum 10 νg/mL for 2, 6, or 24 hours
Description: as §3

## EGF: EGF growth factor, ligand of the EGF receptor, added at 1 nmol/L (NSDSECPLSHDGYCLHDGVCMYIEALDKYACNCVVGYIGERCQYRDLKWWELR; UniProt P01133 971-1023, looked up)
[1]
  EGF stimulated motility: about 50%
[2]; EGF 1 nmol/L
  invasion of sham transfected cells: not statistically significant
[2]; EGF 1 nmol/L, clones C1 and C7
  invasion of 14-3-3σ overexpressing clones: markedly enhanced
[3]; EGF 1 nmol/L
  invasion in 14-3-3σ downregulated cells (sh2 infected) compared to control shRNA infected cells: marked increase
[4]
  motility of 14-3-3σ overexpressing cells: did not cause an additional increase in motility
  motility of sham-transfected cells: slight but significant increase

## IGF-1: IGF-1 growth factor used as chemoattractant at 1 nmol/L
[2]; IGF-1 1 nmol/L
  invasion of PANC-1 clones overexpressing 14-3-3σ compared to sham cells: significantly increased
[3]; IGF-1 1 nmol/L, non-silenced T3M4
  IGF-1-mediated invasion in presence of endogenously high levels of 14-3-3σ: robust
[3]; IGF-1 1 nmol/L, sh1 or sh2 infected
  IGF-1 effect on invasion in T3M4 cells in which 14-3-3σ was silenced: markedly attenuated; also recorded: completely suppressed

## N.N.[Cl][Pt][Cl] [cisplatinum]
[5]
  PARP cleavage in 14-3-3σ overexpressing clones compared with sham transfected cells: attenuated
  generation of cleaved caspase-3 in 14-3-3σ overexpressing clones compared with sham transfected cells: markedly decreased
[6]
  survival of 14-3-3σ overexpressing clones compared with Sham (MTT): significant (p<0.01) increase
[7]
  apoptosis (PARP cleavage, caspase-3 activation) in 14-3-3σ silenced cells compared to non-silenced cells: increased apoptosis

## C[S+]([O-])c1ccc(-c2nc(-c3ccncc3)c(-c3ccc(F)cc3)[nH]2)cc1 (stereo not drawn) [SB203580, reference compound]
[2]; EGF 1 nmol/L, LY 294002 5 μmol/L, SB 203580 10 μmol/L, PP2 10 μmol/L, clone C1
  effect on EGF-mediated invasion in 14-3-3σ overexpressing clones: suppressed; also recorded: completely blocked

## COc1cc2ncnc(Nc3cccc(Br)c3)c2cc1OC [AG 1517, reference compound]
[3]; EGF 1 nmol/L, AG 1517 1 μmol/L, PP2 10 μmol/L
  effect on EGF induced invasion in 14-3-3σ downregulated cells (sh2 infected): suppressed

From patent US20110152358A1, “Compositions and Methods for Diagnosis and Treatment of Pancreatic Ductal Cancer” (priority 2008, published 2011)
